Results as given in patent publication US4634783A, “Novel amidine compound” (Torii & Co. Ltd., priority 1983, dated 1987).
Like-named read-outs stand apart in the source and are kept apart here.

Tests used:
[1] = target: T1, Trypsin (Bos taurus, UniProt P00760); assay: anti-trypsin activity (hydrolysis of TAME); assay type: biochemical; settings: read-out: ID50 Trypsin
T1 sequence (P00760 24-246): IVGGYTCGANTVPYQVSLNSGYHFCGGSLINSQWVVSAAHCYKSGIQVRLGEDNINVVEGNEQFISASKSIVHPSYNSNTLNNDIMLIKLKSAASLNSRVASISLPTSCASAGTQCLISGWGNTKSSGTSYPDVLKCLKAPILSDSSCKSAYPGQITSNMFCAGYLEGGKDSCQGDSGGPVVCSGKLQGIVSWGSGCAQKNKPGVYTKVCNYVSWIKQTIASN
Method: (§1) The anti-trypsin, anti-plasmin, anti-kallikrein and anti-thrombin activities were determined according to the method of Muramatsu et al. [M. Muramatsu, T. Onishi, S. Makino, Y. Hayashi and S. Fujii, J. of Biochem., 58, 214 (1965)]. […] The compound No. corresponds to the compound number shown in Examples.

[2] = target: Plasmin (Homo sapiens, UniProt P00747); assay: anti-plasmin activity (hydrolysis of TAME); assay type: biochemical; settings: for IC50: TAME hydrolysis, read-out: ID50 Plasmin; for inhibition at 10 µM: at 1×10^-5 M, figure in parentheses, read-out: percentage inhibition Plasmin
Sequence of Plasmin (P00747 581-810 limits assumed, species assumed): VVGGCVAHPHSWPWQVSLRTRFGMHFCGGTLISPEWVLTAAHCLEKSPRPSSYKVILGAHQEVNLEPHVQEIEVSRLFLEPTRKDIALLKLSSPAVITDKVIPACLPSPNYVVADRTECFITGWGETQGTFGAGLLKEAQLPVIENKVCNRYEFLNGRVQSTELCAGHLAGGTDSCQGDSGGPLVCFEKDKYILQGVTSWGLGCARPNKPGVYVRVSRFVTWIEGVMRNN
Sequence of Plasmin (P00747 97-580 limits assumed, species assumed): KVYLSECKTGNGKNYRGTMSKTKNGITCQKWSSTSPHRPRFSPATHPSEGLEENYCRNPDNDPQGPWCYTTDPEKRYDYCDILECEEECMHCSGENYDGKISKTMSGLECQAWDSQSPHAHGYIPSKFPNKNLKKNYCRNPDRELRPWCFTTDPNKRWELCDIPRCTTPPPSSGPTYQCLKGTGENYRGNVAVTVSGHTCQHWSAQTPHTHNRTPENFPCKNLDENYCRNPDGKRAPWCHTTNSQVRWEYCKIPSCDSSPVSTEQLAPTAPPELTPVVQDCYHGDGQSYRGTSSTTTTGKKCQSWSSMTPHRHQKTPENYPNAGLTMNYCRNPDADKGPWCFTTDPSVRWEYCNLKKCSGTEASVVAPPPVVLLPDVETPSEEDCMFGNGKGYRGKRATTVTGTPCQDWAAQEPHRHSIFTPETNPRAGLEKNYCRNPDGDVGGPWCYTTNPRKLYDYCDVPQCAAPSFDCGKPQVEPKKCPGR
Method: as §1

[3] = test system: Kallikrein; assay: anti-kallikrein activity (hydrolysis of TAME); assay type: biochemical; settings: for IC50: TAME hydrolysis, read-out: ID50 Kallikrein; for percentage inhibition Kallikrein: at 1×10^-5 M, figure in parentheses
Method: as §1

[4] = target: Thrombin (Homo sapiens, UniProt P00734); assay: biochemical; settings: for IC50: read-out: ID50 Thrombin; for inhibition at 10 µM: at 1×10^-5 M, figure in parentheses, read-out: percentage inhibition Thrombin
[5] = target: T2, C1r (Homo sapiens, UniProt P00736); assay: anti-C1 esterase (C1r) activity (hydrolysis of AAME); assay type: biochemical; settings: for IC50: AAME hydrolysis, read-out: ID50 C1r; for inhibition at 10 µM: at 1×10^-5 M, figure in parentheses, read-out: percent inhibition C1r
T2 sequence (P00736 464-705 limits assumed): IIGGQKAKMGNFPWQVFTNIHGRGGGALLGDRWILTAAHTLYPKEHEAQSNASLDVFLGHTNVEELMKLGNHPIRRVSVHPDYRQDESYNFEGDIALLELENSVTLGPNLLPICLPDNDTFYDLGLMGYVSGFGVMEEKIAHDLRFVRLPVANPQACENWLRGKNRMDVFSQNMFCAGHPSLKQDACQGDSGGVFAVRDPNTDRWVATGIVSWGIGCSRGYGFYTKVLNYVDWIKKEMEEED
T2 sequence (P00736 18-463 limits assumed): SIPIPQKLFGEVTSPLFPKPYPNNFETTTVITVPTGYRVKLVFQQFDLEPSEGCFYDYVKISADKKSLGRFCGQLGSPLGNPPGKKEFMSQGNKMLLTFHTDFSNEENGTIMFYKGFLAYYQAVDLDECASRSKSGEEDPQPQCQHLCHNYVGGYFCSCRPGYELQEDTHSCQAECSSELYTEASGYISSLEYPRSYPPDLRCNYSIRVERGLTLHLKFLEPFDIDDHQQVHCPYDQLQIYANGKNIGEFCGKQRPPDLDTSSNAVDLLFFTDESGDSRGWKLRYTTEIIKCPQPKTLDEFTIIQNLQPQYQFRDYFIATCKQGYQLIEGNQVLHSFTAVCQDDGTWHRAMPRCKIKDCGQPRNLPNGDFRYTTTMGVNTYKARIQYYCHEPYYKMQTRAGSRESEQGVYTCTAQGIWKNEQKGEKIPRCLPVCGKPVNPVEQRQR
Method: (§2) The anti-C1 esterase (C1r, C1s) activity was determined according to the method of Okamura et al. [K. Okamura, M. Muramatsu and B. Fujii, Biochem. Biophys. Acta, 295, 252-257 (1973)]. The inhibition of complement mediated hemolysis was determined according to the method of Baker et al. [B. R. Baker and E. H. Erickson, J. Med. Chem., 12, 408-414 (1969)]. The figures in Table 2 have the following meanings:
C1r: Molar concentration of the test compound which inhibits 50% of the ability of C1r to hydrolyse AAME (acetylarginin methyl ester) (ID50).

[6] = target: T3, C1s (Homo sapiens, UniProt P09871); assay: anti-C1 esterase (C1s) activity (hydrolysis of ATEE); assay type: biochemical; settings: for IC50: ATEE hydrolysis, read-out: ID50 C1s; for inhibition at 10 µM: at 1×10^-5 M, figure in parentheses, read-out: percent inhibition C1s
T3 sequence (P09871 438-688 limits assumed): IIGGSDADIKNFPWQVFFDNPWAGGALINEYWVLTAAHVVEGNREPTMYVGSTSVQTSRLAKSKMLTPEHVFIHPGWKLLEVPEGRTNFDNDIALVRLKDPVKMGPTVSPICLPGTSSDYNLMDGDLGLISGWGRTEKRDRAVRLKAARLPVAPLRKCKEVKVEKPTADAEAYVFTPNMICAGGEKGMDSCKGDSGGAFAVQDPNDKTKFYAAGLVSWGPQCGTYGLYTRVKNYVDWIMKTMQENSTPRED
T3 sequence (P09871 16-437 limits assumed): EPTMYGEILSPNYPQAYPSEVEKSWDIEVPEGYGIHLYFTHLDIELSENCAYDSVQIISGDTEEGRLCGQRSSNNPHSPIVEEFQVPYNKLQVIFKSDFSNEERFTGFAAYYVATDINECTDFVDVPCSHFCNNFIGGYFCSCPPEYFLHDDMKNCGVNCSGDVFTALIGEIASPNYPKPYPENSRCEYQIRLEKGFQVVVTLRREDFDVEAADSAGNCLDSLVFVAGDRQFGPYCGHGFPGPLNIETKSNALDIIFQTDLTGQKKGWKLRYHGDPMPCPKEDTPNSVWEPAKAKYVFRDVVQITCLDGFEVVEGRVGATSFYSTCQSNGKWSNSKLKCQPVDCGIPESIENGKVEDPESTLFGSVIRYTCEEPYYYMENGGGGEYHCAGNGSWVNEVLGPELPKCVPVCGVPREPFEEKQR
Method: as §2
C1s: Molar concentration of the test compound which inhibits 50% of the ability of C1s to hydrolyse ATEE (acetyltyrosin ethyl ester) (ID50).

[7] = test system: complement mediated hemolysis; assay: inhibition of complement mediated hemolysis; assay type: cell-based
Method: The complement mediated hemolysis is widely used as a means to determine the titration of complement. The principle of this method is based on the fact that hemolysis is caused by the activation of complement, when the latter is added to a complex (immune complex) of erythrocytes and the antibody thereof. The degree of hemolysis varies in proportion to the amount of complement added. Therefore, when a known amount of complement admixed with a C1 esterase inhibitor is used, the hemolysis must be suppressed in proportion to the inhibitory activity.
as §2
Inhibition of complement mediated hemolysis (%): The inhibitory activity is shown in terms of percent inhibition of the compound at varied concentrations: […]

[8] = test system: Forssman shock; assay: Forssman shock; assay type: in vivo; settings: test compound 3 mg/kg before hemolysin i.v.; male Hartlay guinea pig; control death at 278, 318, 296 sec.
Description: Quite different from other animals, guinea pig has on the surface of its organs a specific antigen called Forssman antigen which specifically reacts with the antibody of sheep erythrocyte. Forssman shock is based on the above principle and is a shock caused by the administration of antibody of sheep erythrocyte to a guinea pig. The Forssman shock was investigated in detail by many researches and it was definitely shown that this shock is a model case where the complement plays the principal part and that the shock is associated with a classical pathway in which the complement system is activated progressively starting from C1. Since the participation of complement in autoimmune diseases has been established, the Forssman shock can be said to be a useful means for testing a drug for autoimmune diseases. A drug effective for the treatment of Forssman shock is useful as a drug of autoimmune diseases.
The experiment was performed according to the method of I. G. Offerness et al. [Biochem. Pharmacol., 27 (14), 1873-1878 (1978)]. Male Hartlay guinea pig of about 300 g in body weight was used. Each guinea pig of the control group was administered intravenously with hemolysin (minimum dose to cause the shock) (commercial hemolysin, 5,000 U as assayed by the method of Ogata) and the time elapsed until death was observed. […]

[9] = Toxicity: median lethal dose (LD50); settings: in vivo, mouse

SMILES	IC50 [1] [nM]	IC50 [2] [nM]	IC50 [3] [nM]	IC50 ([4]; TAME hydrolysis) [nM]	IC50 [5] [nM]	IC50 [6] [nM]	Inhibition of complement mediated hemolysis ([7]; 1 × 10^-4) [%]	Inhibition of complement mediated hemolysis ([7]; 1 × 10^-5) [%]	Inhibition of complement mediated hemolysis ([7]; 1 × 10^-6) [%]	Inhibition of complement mediated hemolysis ([7]; 1 × 10^-7)	time elapsed until death (survival) in Forssman shock [8]	LD50 ([9]; ip, I.P.) [mg/kg]	LD50 ([9]; po, P.O.) [mg/kg]	percentage inhibition Kallikrein [3]	inhibition at 10 µM [6] [%]	IC50 [4] [nM]	inhibition at 10 µM [2] [%]	inhibition at 10 µM [4] [%]	inhibition at 10 µM [5] [%]
COc1ccc(C(=O)Oc2ccc3cc(C(=N)N)ccc3c2)o1 [Compound No. 1, 6-amidino-2-naphthyl 5-methoxy-furan-2-carboxylate]	10	400	300	200	60	200	100	100	98	99%	Survival	200	2500						
N=C(N)c1ccc2cc(OC(=O)C=Cc3ccco3)ccc2c1 [compound 14]	1000	300	5000	7000	3000	400	98	94	72	20%									
N=C(N)c1ccc2cc(OC(=O)c3cc4ccccc4o3)ccc2c1 [compound 16]	2000	3000		7000	4000		100	99	99	98%				NE (the percentage inhibition is less than 10%)	< 10				
COc1ccc2oc(C(=O)Oc3ccc4cc(C(=N)N)ccc4c3)cc2c1 [compound 17]	3000	3000		2000	4000	6000	100	100	95	90%				NE (the percentage inhibition is less than 10%)					
N=C(N)c1ccc2cc(OC(=O)c3cccs3)ccc2c1 [compound 22]	200	300	2000	200	70	300	100	96	58	34%									
Cc1ccc(C(=O)Oc2ccc3cc(C(=N)N)ccc3c2)s1 [compound 23]	< 10	300	2000		700	400	100	99	95	91%						3000			
N=C(N)c1ccc2cc(OC(=O)c3ccc[nH]3)ccc2c1 [compound 28]	6000					300	88	55	28	NE (the percentage inhibition is less than 10%)				NE (the percentage inhibition is less than 10%)			< 10	< 10	31
N=C(N)c1ccc2cc(OC(=O)c3ccccn3)ccc2c1 [compound 45]	5000	7000		4000			100	98	75	46%				NE (the percentage inhibition is less than 10%)	20				18
N=C(N)c1ccc2cc(OC(=O)c3ccc([N+](=O)[O-])o3)ccc2c1 [compound 65, 6-amidino-2-naphthyl 5-nitrofuran-2-carboxylate]	800						100	100	89	80%				NE (the percentage inhibition is less than 10%)	28		< 10	13	30
